From US8658646B2, “Pyrrolopyrazine kinase inhibitors” (Hoffmann-LaRoche Inc., priority 2011, dated 2014)

Target: T1, JAK3: Recombinant human kinase domain (Homo sapiens, UniProt P52333)
T1 construct: JAK3: Recombinant human kinase domain from Millipore (Cat #14-629) or prepared; purchased Millipore 14-629
Assay: Determination of IC50 of Janus Kinase (JAK) inhibition, radioactive end-point 33P-ATP assay, JAK3
Format: biochemical
Conditions: ATP 1.5 uM, peptide 50 uM, 20 minutes, read-out: JAK3-INHIB-DR/v1~NO ADDITIVE~Enzyme_Conc = 100

T1 sequence (P52333 822-1111 limits assumed): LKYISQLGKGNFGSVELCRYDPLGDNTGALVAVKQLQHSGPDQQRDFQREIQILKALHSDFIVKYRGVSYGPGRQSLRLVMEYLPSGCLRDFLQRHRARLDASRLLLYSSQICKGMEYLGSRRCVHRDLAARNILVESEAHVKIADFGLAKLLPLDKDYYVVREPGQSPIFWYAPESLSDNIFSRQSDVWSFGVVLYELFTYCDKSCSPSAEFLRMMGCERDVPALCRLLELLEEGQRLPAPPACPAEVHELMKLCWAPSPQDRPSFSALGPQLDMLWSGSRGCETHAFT

| Compound | IC50 [nM] |
| --- | --- |
| C[C@H](CCC#N)NC(=O)c1c[nH]c2ncc(-c3nn(C)c4cc(Cl)ccc34)nc12 [Example I-205, 2-(6-Chloro-1-methyl-1H-indazol-3-yl)-5H-pyrrolo[2,3-b]pyrazine-7-carboxylic acid ((R)-3-cyano-1-methyl-propyl)-amide] | 18.4 |
| C[C@@H](NC(=O)c1c[nH]c2ncc(-c3nn(CC(=O)O)c4cc(Cl)ccc34)nc12)C(=O)N1CC(C#N)C1 [Example I-226, (6-Chloro-3-{7-[(R)-2-(3-cyano-azetidin-1-yl)-1-methyl-2-oxo-ethylcarbamoyl]-5H-pyrrolo[2,3-b]pyrazin-2-yl}-indazol-1-yl)-acetic acid] | 8.1 |
| C[C@@H](NC(=O)c1c[nH]c2ncc(-c3nn(C)c4cc(F)ccc34)nc12)c1cccc(C#N)c1 [Example I-217, 2-(6-Fluoro-1-methyl-1H-indazol-3-yl)-5H-pyrrolo[2,3-b]pyrazine-7-carboxylic acid [(R)-1-(3-cyano-phenyl)-ethyl]-amide] | 23.2 |
| C[C@H](NC(=O)c1c[nH]c2ncc(-c3nn(C)c4cc(F)ccc34)nc12)c1ncco1 [Example I-51, 2-(6-Fluoro-1-methyl-1H-indazol-3-yl)-5H-pyrrolo[2,3-b]pyrazine-7-carboxylic acid ((S)-1-oxazol-2-yl-ethyl)-amide] | 9.11 |
| C[C@@H](C#N)CNC(=O)c1c[nH]c2ncc(-c3nn(C)c4cc(F)ccc34)nc12 [Example I-136, 2-(6-Fluoro-1-methyl-1H-indazol-3-yl)-5H-pyrrolo[2,3-b]pyrazine-7-carboxylic acid ((R)-2-cyano-2-methyl-ethyl)-amide] | 176 |
| CC(C)NC(=O)c1c[nH]c2ncc(-c3nn(CCCN(C)C)c4cc(Cl)cc(F)c34)nc12 [Example I-130, 2-[6-Chloro-1-(3-dimethylamino-propyl)-4-fluoro-1H-indazol-3-yl]-5H-pyrrolo[2,3-b]pyrazine-7-carboxylic acid isopropylamide] | 14.3 |
| C[C@@H](NC(=O)c1c[nH]c2ncc(-c3nn(C)c4cc(Cl)ccc34)nc12)[C@H]1C[C@H]1C#N (single isomer, unassigned) [Example I-207] | 5.45 |
| Cn1nc(-c2cnc3[nH]cc(C(=O)NC4CCCC4)c3n2)c2ccc(Cl)cc21 [Example I-106, 2-(6-Chloro-1-methyl-1H-indazol-3-yl)-5H-pyrrolo[2,3-b]pyrazine-7-carboxylic acid cyclopentylamide] | 5.26 |
| C[C@@H](NC(=O)c1c[nH]c2ncc(-c3nn(C)c4cc(Cl)ccc34)nc12)[C@@H]1C[C@@H]1C#N (single isomer, unassigned) [Example I-206] | 17.6 |
| C[C@@H](NC(=O)c1c[nH]c2ncc(-c3nn(C)c4cc(F)ccc34)nc12)c1nc(CC#N)co1 [Example I-62, 2-(6-Fluoro-1-methyl-1H-indazol-3-yl)-5H-pyrrolo[2,3-b]pyrazine-7-carboxylic acid [(R)-1-(4-cyanomethyl-oxazol-2-yl)-ethyl]-amide] | 15.1 |
| CC[C@@H](COC)NC(=O)c1c[nH]c2ncc(-c3nn(C)c4cc(Cl)ccc34)nc12 [Example I-173, 2-(6-Chloro-1-methyl-1H-indazol-3-yl)-5H-pyrrolo[2,3-b]pyrazine-7-carboxylic acid ((S)-1-methoxymethyl-propyl)-amide] | 3.56 |
| CC(O)Cn1nc(-c2cnc3[nH]cc(C(=O)N[C@H](C)C(=O)N4CC(C#N)C4)c3n2)c2ccc(Cl)cc21 (stereo partly drawn) [Example I-95, 2-[6-Chloro-1-(2-hydroxy-propyl)-1H-indazol-3-yl]-5H-pyrrolo[2,3-b]pyrazine-7-carboxylic acid [(R)-2-(3-cyano-azetidin-1-yl)-1-methyl-2-oxo-ethyl]-amide] | 4.83 |
| Cn1nc(-c2cnc3[nH]cc(C(=O)N[C@H]4CCC[C@H](C(N)=O)C4)c3n2)c2ccc(Cl)cc21 (relative stereo) [Example I-155, 2-(6-Chloro-1-methyl-1H-indazol-3-yl)-5H-pyrrolo[2,3-b]pyrazine-7-carboxylic acid (trans-3-carbamoyl-cyclohexyl)-amide] | 78.3 |

Stronger by IC50, values ahead:

| IC50 [nM] | Compound |
| --- | --- |
| 1.15 | COCC(C)NC(=O)c1c[nH]c2ncc(-c3nn(C)c4cc(Cl)ccc34)nc12 (centres unmarked) [Example I-152, 2-(6-Chloro-1-methyl-1H-indazol-3-yl)-5H-pyrrolo[2,3-b]pyrazine-7-carboxylic acid (2-methoxy-1-methyl-ethyl)-amide] |
| 1.27 | Cc1nc(-c2cnc3[nH]cc(C(=O)N[C@H](C)C(=O)N4CC(C#N)C4)c3n2)c2ccc(F)cn12 [Example I-34, 2-(6-Fluoro-3-methyl-imidazo[1,5-a]pyridin-1-yl)-5H-pyrrolo[2,3-b]pyrazine-7-carboxylic acid [(R)-2-(3-cyano-azetidin-1-yl)-1-methyl-2-oxo-ethyl]-amide] |
| 1.72 | Cn1nc(-c2cnc3[nH]cc(C(=O)N[C@@H](C(=O)N4CCC(C#N)CC4)C4CC4)c3n2)c2ccccc21 [Example I-1] |
| 0.54 | COC[C@@H](NC(=O)c1c[nH]c2ncc(-c3nn(C)c4cc(Cl)ccc34)nc12)C(=O)N1CC(C#N)C1 [Example I-175, 2-(6-Chloro-1-methyl-1H-indazol-3-yl)-5H-pyrrolo[2,3-b]pyrazine-7-carboxylic acid [(R)-2-(3-cyano-azetidin-1-yl)-1-methoxymethyl-2-oxo-ethyl]-amide] |
| 2.63 | C[C@@H](NC(=O)c1c[nH]c2ncc(-c3nn(C)c4cc(F)ccc34)nc12)c1ncco1 [Example I-50, 2-(6-Fluoro-1-methyl-1H-indazol-3-yl)-5H-pyrrolo[2,3-b]pyrazine-7-carboxylic acid ((R)-1-oxazol-2-yl-ethyl)-amide] |
| 1.07 | [2H]C([2H])([2H])OC[C@H](C)NC(=O)c1c[nH]c2ncc(-c3nn(C)c4cc(F)ccc34)nc12 [Example I-182, 2-(6-Fluoro-1-methyl-1H-indazol-3-yl)-5H-pyrrolo[2,3-b]pyrazine-7-carboxylic acid ((S)-1-methyl-2-trideuteromethoxy-ethyl)-amide] |
| 2.12 | COC[C@H](C)NC(=O)c1c[nH]c2ncc(-c3nn(C)c4cc(F)c(F)cc34)nc12 [Example I-212, 2-(5,6-Difluoro-1-methyl-1H-indazol-3-yl)-5H-pyrrolo[2,3-b]pyrazine-7-carboxylic acid ((S)-2-methoxy-1-methyl-ethyl)-amide] |
| 1.09 | COC[C@@H](NC(=O)c1c[nH]c2ncc(-c3nn(C)c4cc(Cl)ccc34)nc12)C(=O)N1CC(F)C1 [Example I-174, 2-(6-Chloro-1-methyl-1H-indazol-3-yl)-5H-pyrrolo[2,3-b]pyrazine-7-carboxylic acid [(R)-2-(3-fluoro-azetidin-1-yl)-1-methoxymethyl-2-oxo-ethyl]-amide] |
| 0.49 | COC[C@H](C)NC(=O)c1c[nH]c2ncc(-c3nn(Cc4cccnc4)c4cc(Cl)ccc34)nc12 [Example I-235, 2-(6-Chloro-1-pyridin-3-ylmethyl-1H-indazol-3-yl)-5H-pyrrolo[2,3-b]pyrazine-7-carboxylic acid ((S)-2-methoxy-1-methyl-ethyl)-amide] |
| 2.34 | COCCn1nc(-c2cnc3[nH]cc(C(=O)N[C@H](C)C(=O)N4CC(C#N)C4)c3n2)c2ccc(Cl)cc21 [Example I-24, 2-[6-Chloro-1-(2-methoxy-ethyl)-1H-indazol-3-yl]-5H-pyrrolo[2,3-b]pyrazine-7-carboxylic acid [(R)-2-(3-cyano-azetidin-1-yl)-1-methyl-2-oxo-ethyl]-amide] |
